The source made the active and inactive calls. No cut-off for these calls is given here.
Key:
[1] = tested on: MCF7; experiment: Cytotoxicity against human MCF7 cells assessed as reduction in cell viability measured after 72 hrs by MTS assay; type: functional, cell-based; conditions: MCF7, 72 h
[2] = tested on: U-251; experiment: Cytotoxicity against human U-251 cells assessed as reduction in cell viability measured after 72 hrs by MTS assay; type: functional, cell-based; conditions: U-251, 72 h
[3] = tested on: K562; experiment: Cytotoxicity against human K562 cells assessed as reduction in cell viability measured after 72 hrs by MTS assay; type: functional, cell-based; conditions: K562, 72 h
[4] = tested on: PANC-1; experiment: Cell cycle arrest in human PANC-1 cells assessed as accumulation at S-phase at 2.5 uM measured after 24 hrs by muse cell analyser (reference value: 14.3 to 14.9%); type: functional
[5] = tested on: PANC-1; experiment: Cell cycle arrest in human PANC-1 cells assessed as accumulation at G2/M-phase at 2.5 uM measured after 24 hrs by muse cell analyser (reference value: 36.3 to 36.88%); type: functional
[6] = tested on: PANC-1; experiment: Cell cycle arrest in human PANC-1 cells assessed as accumulation at G0/G1-phase at 5 uM measured after 24 hrs by muse cell analyser (reference value: 48.28 to 48.7%); type: functional
[7] = tested on: PANC-1; experiment: Cell cycle arrest in human PANC-1 cells assessed as accumulation at S-phase at 5 uM measured after 24 hrs by muse cell analyser (reference value: 14.3 to 14.9%); type: functional
[8] = tested on: PANC-1; experiment: Cell cycle arrest in human PANC-1 cells assessed as accumulation at G2/M-phase at 5 uM measured after 24 hrs by muse cell analyser (reference value: 36.3 to 36.88%); type: functional
[9] = tested on: PANC-1; experiment: Cell cycle arrest in human PANC-1 cells assessed as accumulation at G0/G1-phase at 7.5 uM measured after 24 hrs by muse cell analyser (reference value: 48.28 to 48.7%); type: functional
[10] = tested on: PANC-1; experiment: Cell cycle arrest in human PANC-1 cells assessed as accumulation at G2/M-phase at 7.5 uM measured after 24 hrs by muse cell analyser (reference value: 36.3 to 36.88%); type: functional
[11] = tested on: MCF7; experiment: Cell cycle arrest in human MCF7 cells assessed as accumulation at S-phase at 5 uM measured after 24 hrs by muse cell analyser (reference value: 9.9 to 11.66%); type: functional
[12] = tested on: MCF7; experiment: Cell cycle arrest in human MCF7 cells assessed as accumulation at G2/M-phase at 5 uM measured after 24 hrs by muse cell analyser (reference value: 30.92 to 33.6%); type: functional
[13] = tested on: MCF7; experiment: Cell cycle arrest in human MCF7 cells assessed as accumulation at G0/G1-phase at 7.5 uM measured after 24 hrs by muse cell analyser (reference value: 52.65 to 53.3%); type: functional
[14] = tested on: MCF7; experiment: Cell cycle arrest in human MCF7 cells assessed as accumulation at S-phase at 7.5 uM measured after 24 hrs by muse cell analyser (reference value: 9.9 to 11.66%); type: functional
[15] = tested on: MCF7; experiment: Cell cycle arrest in human MCF7 cells assessed as accumulation at G2/M-phase at 7.5 uM measured after 24 hrs by muse cell analyser (reference value: 30.92 to 33.6%); type: functional
[16] = tested on: MCF7; experiment: Induction of apoptosis in human MCF7 cells measured after 48 hrs by Annexin V and dead cell kit analysis; type: functional, cell-based; conditions: dose 5-7.5 µM
[17] = tested on: PANC-1; experiment: Induction of apoptosis in human PANC-1 cells assessed as viable cells at 5 uM measured after 48 hrs by Annexin V and dead cell kit analysis (reference value: 85.6%); type: functional; conditions: read-out: Activity
[18] = tested on: PANC-1; experiment: Induction of apoptosis in human PANC-1 cells assessed as early apoptotic cells at 5 uM measured after 48 hrs by Annexin V and dead cell kit analysis (reference value: 10.95%); type: functional
[19] = tested on: PANC-1; experiment: Induction of apoptosis in human PANC-1 cells assessed as late apoptotic cells at 5 uM measured after 48 hrs by Annexin V and dead cell kit analysis (reference value: 2.4%); type: functional
[20] = tested on: PANC-1; experiment: Induction of apoptosis in human PANC-1 cells assessed as viable cells at 7.5 uM measured after 48 hrs by Annexin V and dead cell kit analysis (reference value: 85.6%); type: functional; conditions: read-out: Activity
[21] = tested on: PANC-1; experiment: Induction of apoptosis in human PANC-1 cells assessed as late apoptotic cells at 7.5 uM measured after 48 hrs by Annexin V and dead cell kit analysis (reference value: 2.4%); type: functional
[22] = tested on: PANC-1; experiment: Induction of apoptosis in human PANC-1 cells assessed as necrotic cells at 7.5 uM measured after 48 hrs by Annexin V and dead cell kit analysis (reference value: 1.05%); type: functional
[23] = tested on: MCF7; experiment: Induction of apoptosis in human MCF7 cells assessed as viable cells at 5 uM measured after 48 hrs by Annexin V and dead cell kit analysis (reference value: 97.4%); type: functional; conditions: read-out: Activity
[24] = tested on: MCF7; experiment: Induction of apoptosis in human MCF7 cells assessed as early apoptotic cells at 5 uM measured after 48 hrs by Annexin V and dead cell kit analysis (reference value: 0.65%); type: functional
[25] = tested on: MCF7; experiment: Induction of apoptosis in human MCF7 cells assessed as late apoptotic cells at 5 uM measured after 48 hrs by Annexin V and dead cell kit analysis (reference value: 1.45%); type: functional
[26] = tested on: MCF7; experiment: Induction of apoptosis in human MCF7 cells assessed as viable cells at 7.5 uM measured after 48 hrs by Annexin V and dead cell kit analysis (reference value: 97.4%); type: functional; conditions: read-out: Activity
[27] = tested on: MCF7; experiment: Induction of apoptosis in human MCF7 cells assessed as necrotic cells at 7.5 uM measured after 48 hrs by Annexin V and dead cell kit analysis (reference value: 0.5%); type: functional
[28] = tested on: PANC-1; experiment: Induction of reactive oxygen species generation in human PANC-1 cells at 1 uM measured after 12 hrs by cellrox-green reagent based assay; type: functional, cell-based
[29] = tested on: PANC-1; experiment: Up regulation of p21 expression in human PANC-1 cells at 0.5 uM measured after 24 hrs by Western blot analysis; type: functional, cell-based
[30] = tested on: PANC-1; experiment: Down regulation of p21 expression in human PANC-1 cells at 5 uM measured after 24 hrs by Western blot analysis; type: functional, cell-based
[31] = tested on: MCF7; experiment: Down regulation of p21 expression in human MCF7 cells at 5 uM measured after 24 hrs by Western blot analysis; type: functional, cell-based
[32] = tested on: MCF7; experiment: Down regulation of cyclin E1 expression in human MCF7 cells at 1 uM measured after 24 hrs by Western blot analysis; type: functional, cell-based
[33] = tested on: PANC-1; experiment: Down regulation of cyclin E1 expression in human PANC-1 cells at 0.5 to 5 uM measured after 24 hrs by Western blot analysis; type: functional, cell-based; conditions: dose 0.5-5 µM
[34] = tested on: PANC-1; experiment: Effect on cdc2 expression in human PANC-1 cells at 0.5 to 5 uM measured after 24 hrs by Western blot analysis; type: functional, cell-based; conditions: dose 0.5-5 µM
[35] = tested on: MCF7; experiment: Effect on cdc2 expression in human MCF7 cells at 1 to 5 uM measured after 24 hrs by Western blot analysis; type: functional, cell-based; conditions: dose 1-5 µM
[36] = Up regulation of HIF1 expression in human MCF7 cells at 1 to 5 uM measured after 24 hrs by Western blot analysis relative to control; type: functional; conditions: dose 1-5 µM
[37] = Up regulation of HIF1 expression in human PANC-1 cells at 0.5 to 5 uM measured after 24 hrs by Western blot analysis relative to control; type: functional; conditions: dose 0.5-5 µM
[38] = tested on: PANC-1; experiment: Induction of apoptosis in human PANC-1 cells assessed as increase in PARP cleavage at 0.5 to 5 uM measured after 24 hrs by Western blot analysis; type: functional, cell-based; conditions: dose 0.5-5 µM

c1ccc(-c2cn(-c3ccc(-c4cc(-c5ccccn5)nc(-c5ccccn5)c4)cc3)nn2)nc1
IC50 [1]: 407 nM | IC50 [2]: 855 nM | IC50 [3]: 916 nM | Activity [4]: 11.2% | Activity [5]: 30.2% | Activity [6]: 55.1% | Activity [7]: 7.3% | Activity [8]: 35.25% | Activity [9]: 58.75% | Activity [10]: 31% | Activity [11]: 12.1% | Activity [12]: 22.4% | Activity [13]: 60.4% | Activity [14]: 10% | Activity [15]: 22% | Activity [16]: Dose-dependent effect | viability at 5 µM [17]: 48.8% | Activity [18]: 41.4% | Activity [19]: 8.75% | viability at 7.5 µM [20]: 39% | Activity [21]: 4.55% | Activity [22]: 1.8% | viability at 5 µM [23]: 67.1% | Activity [24]: 10.6% | Activity [25]: 11.4% | viability at 7.5 µM [26]: 50.2% | Activity [27]: 4.15% | Activity [28]: Active | Activity [29]: Active | Activity [30]: Active | Activity [31]: Active | Activity [32]: Active | Activity [33]: inactive | Activity [34]: inactive | Activity [35]: inactive | fold change (FC) [36]: 45 | fold change (FC) [37]: 30 | Activity [38]: Active

From ChEMBL document CHEMBL4706629, “New derivatives of 4'-phenyl-2,2':6',2″-terpyridine as promising anticancer agents” (Eur J Med Chem, 2021)
